Laboratory results as given in ChEMBL document CHEMBL1123987, “Oral absorption of cephalosporin antibiotics. 3. Synthesis and biological properties of 7 alpha-methoxy-7 beta-(arylacetamido)-3-chloro-3-cephem-4-carboxylic acids” (1988).
Values after ≈ are worked out from the molar mass of the structure shown.

Experiments:
Format in all cases: functional
[1] = test system: Streptococcus pneumoniae; assay: Minimum inhibitory concentration against Streptococcus pneumoniae
[2] = test system: Haemophilus influenzae; assay: Minimum inhibitory concentration against Haemophilus influenzae (beta-lactamase (+))
[3] = test system: Staphylococcus aureus; assay: Minimum inhibitory concentration against Staphylococcus aureus
[4] = test system: Haemophilus influenzae; assay: Minimum inhibitory concentration against H influenzae(beta-lactamase (-))
[5] = test system: Streptococcus pyogenes; assay: Minimum inhibitory concentration against Streptococcus pyogenes
[6] = test system: Escherichia coli; assay: Minimum inhibitory concentration against Escherichia coli
[7] = test system: Haemophilus influenzae; assay: Minimum inhibitory concentration against H influenzae (beta-lactamase (-))

MIC [1] [µg/mL]	MIC [2] [µg/mL]	MIC [3] [µg/mL]	MIC [4] [µg/mL]	MIC [5] [µg/mL]	MIC [6] [µg/mL]	MIC [7] [µg/mL]	SMILES
128 (≈ 321 µM)	> 128	> 128	> 128	128 (≈ 321 µM)	> 128	–	CO[C@@]1(NC(=O)COc2ccccc2)C(=O)N2C(C(=O)O)=C(Cl)CSC21 (some centres not stated)
0.25 (≈ 0.678 µM)	2 (≈ 5.42 µM)	0.25 (≈ 0.678 µM)	–	0.125 (≈ 0.339 µM)	64 (≈ 174 µM)	2 (≈ 5.42 µM)	O=C(COc1ccccc1)N[C@@H]1C(=O)N2C(C(=O)O)=C(Cl)CSC12 (some centres not stated)
0.5 (≈ 1.33 µM)	1 (≈ 2.67 µM)	1 (≈ 2.67 µM)	1 (≈ 2.67 µM)	0.125 (≈ 0.333 µM)	1 (≈ 2.67 µM)	–	Nc1nc(CC(=O)N[C@@H]2C(=O)N3C(C(=O)O)=C(Cl)CSC23)cs1 (some centres not stated)

Further lines, the molecule ahead of its results:

SMILES	MIC [1] [µg/mL]	MIC [2] [µg/mL]	MIC [3] [µg/mL]	MIC [4] [µg/mL]	MIC [5] [µg/mL]	MIC [6] [µg/mL]	MIC [7] [µg/mL]
N[C@@H](C(=O)N[C@@H]1C(=O)N2C(C(=O)O)=C(Cl)CS[C@H]12)c1ccccc1.O [CEFACLOR]	0.5	2	1	1	0.25	1	–
O=C(Cc1cccs1)N[C@@H]1C(=O)N2C(C(=O)O)=C(Cl)CSC12 (some centres not stated)	0.125 (≈ 0.348 µM)	1 (≈ 2.79 µM)	0.5 (≈ 1.39 µM)	1 (≈ 2.79 µM)	0.125 (≈ 0.348 µM)	4 (≈ 11.1 µM)	–
CO[C@@]1(NC(=O)Cc2cccs2)C(=O)N2C(C(=O)O)=C(Cl)CSC21 (some centres not stated)	128 (≈ 329 µM)	> 128	> 128	> 128	128 (≈ 329 µM)	> 128	–
CO[C@@]1(NC(=O)Cc2csc(N)n2)C(=O)N2C(C(=O)O)=C(Cl)CSC21 (some centres not stated)	0.5 (≈ 1.24 µM)	16 (≈ 39.5 µM)	16 (≈ 39.5 µM)	16 (≈ 39.5 µM)	1 (≈ 2.47 µM)	8 (≈ 19.8 µM)	–
